According to US4599347A, “Tetrahydro-naphth (2.3-d) imidazole derivatives” (Hoffmann-La Roche Inc., priority 1980, dated 1986):
Where a name gives a salt, the structure may show the parent alone. Read-outs that look alike come from different tables or passages of the source.

Tests used:
[1] = Preliminary toxicity in the mouse; settings: in vivo, po, read-out: Prel. tox mouse
Description: Representative compounds of formula I of the invention were tested for their gastric acid secretion-inhibiting activity, for their anti-ulcer activity, as well as for their toxicity.
In Table I, which follows, the names of the compounds tested as well as the results of the testing for their gastric secretion-inhibiting activity, for their anti-ulcer activity and for their toxicity are given.

ulcers of the duodenum = experiment: Anti-ulcer activity (ulcers of the duodenum induced by 4-methylhistamine and carbachol in guinea pigs); type: in vivo, guinea pig; settings: i.g.; for ED50: Cavia porcellus, po, read-out: Anti-ulcer ED 50
Description: Before the beginning of the testing a group of 10 guinea pigs, body weight 280 to 320 g, of the same sex receives no food for 24 hours, but receives water ad libitum. Various doses of the test substance or of the appropriate vehicle (control) are administered intragastrically. The test is repeated on different days with other groups of guinea pigs in order to avoid the influence of daily variations.

[2] = tested on: acid secretion caused by 4-methylhistamine dihydrochloride; experiment: Heidenhain test (gastric pouch dogs, inhibition of 4-methylhistamine-stimulated acid secretion); type: in vivo, dog; settings: 50% inhibition of acid secretion caused by 4-methylhistamine dihydrochloride infusion; for ED50: Canis lupus familiaris, po, read-out: Heidenhain test ED 50
Description: The two experimental procedures described hereinafter were used to determine the gastric acid secretion-inhibiting activity: Heidenhain test A part of the stomach fundus of female and male dogs is separated from the remaining stomach in the form of a pouch according to the […] technique [described by Rudick et al. in J. Surgical Research 7, 383-398 (1967)]. In the pouch there is fitted a steel cannula which is conducted externally through the abdominal wall. The secretion experiments are commenced after about 6 weeks. Before each experiment the animals receive no food for 18 hours, but receive water ad libitum. They are conscious during the experiment. A saphenous vein is cannulated for an infusion of 4-methylhistamine dihydrochloride, a selective stimulator of the histamine H2 -receptors. An appropriate infusion rate of the 4-methylhistamine dihydrochloride ([…], intravenously) is ascertained for each animal in preliminary experiments. During the entire main experiment the gastric secretion is stimulated by the infusion of 4-methylhistamine dihydrochloride, and 15 minute fractions of the gastric juice are collected continuously. As soon as volume and pH of these fractions show constant values, the test substances are administered orally. The ED 50 is defined as that dosage of test substance which brings about a 50% inhibition of the acid secretion caused by 4-methylhistamine dihydrochloride in the treated animals compared with the controls.

gastric acid secretion = experiment: Shay test (pylorus-ligated rats, gastric acid secretion-inhibiting activity); type: in vivo, rat; settings: female rats, i.d.; for ED50: Rattus norvegicus, 4 h
Description: The two experimental procedures described hereinafter were used to determine the gastric acid secretion-inhibiting activity: Shay test The pylorus of female rats, which had received no food for 24 hours but which had received water ad libitum, is ligatured under slight ether narcosis in accordance with Shay et al. [Gastroenterology 5, 43 (1945)]. Immediately thereafter the substances to be tested are administered intraduodenally to the animals. Four (4) hours later the animals are killed. The volume and the acidity of their gastric juice are determined and the values obtained are compared with those of control animals which were treated similarly, but had received no test substance. The ED 50 is defined as the dosage of test substance which brings about a 50% reduction of volume or acidity of the gastric juice in the treated animals compared with the control animals.

[3] = 50% reduction of acidity of gastric juice, read-out: Shay test ED 50 Acid
[4] = 50% reduction of volume of gastric juice, read-out: Shay test ED 50 Vol

Structure (SMILES) | LD50 [1] [mg/kg] | ED50 (ulcers of the duodenum) [mg/kg] | ED50 [2] [mg/kg] | ED50 (gastric acid secretion; [3]) [mg/kg] | ED50 (gastric acid secretion; [4]) [mg/kg] | Anti-ulcer ED 50 (ulcers of the duodenum; dihydrochloride) [mg/kg] | Heidenhain test ED 50 ([2]; p.o., dihydrochloride) [mg/kg] | Shay test ED 50 Acid (gastric acid secretion; 4 hours, 50% reduction of acidity of gastric juice, dihydrochloride, 240 min) [mg/kg] | Shay test ED 50 Vol (gastric acid secretion; 4 hours, 50% reduction of volume of gastric juice, dihydrochloride, 240 min) [mg/kg]
Cc1ccc(CSc2nc3cc4c(cc3[nH]2)CCC4)nc1.Cl.Cl [1,5,6,7-tetrahydro-2-[[(5-methyl-2-pyridyl)methyl]thio]indeno(5,6-d)imidazole dihydrochloride] | 1250 | 34 | 3.6 | 28 | 50 | – | – | – | –
CC1(C)C(=O)C(C)(C)c2cc3[nH]c(SCc4ccccn4)nc3cc21 [5,7-dihydro-5,5,7,7-tetramethyl-2-[(2-pyridylmethyl)thio]indeno(5,6-d)imidazol-6(1H)-one] | 2500 | 32 | 5.5 | 9 | 20 | – | – | – | –
c1ccc(CSc2nc3cc4c(cc3[nH]2)OCO4)nc1 [6-[(2-Pyridylmethyl)thio]-5H-1,3-dioxolo(4,5-f)-benzimidazole.2HCl] | 1250 | 17 | 2.6 | 29 | 35 | – | – | – | –
Cc1ccc(CSc2nc3cc4c(cc3[nH]2)OCO4)nc1 [6-[[(5-Methyl-2-pyridyl)-methyl]thio]-5H--1,3-dioxolo-(4,5-f)benzimidazole dihydrochloride] | – | – | – | – | – | 25 | 2.1 | 65 | 75
Cc1ccc(C[S+]([O-])c2nc3cc4c(cc3[nH]2)OCO4)nc1 (stereo not shown) [6-[[(5-methyl-2-pyridyl)methyl]sulfinyl]-5H-1,3-dioxolo(4,5-f)-benzimidazole] | 5000 | 14 | 2.3 | 28 | 65 | – | – | – | –
Cc1ccc(CSc2nc3cc4c(cc3[nH]2)OCO4)nc1 [6-[[(5-methyl-2-pyridyl)methyl]thio]-5H-1,3-dioxolo(4,5-f)benzimidazole] | – | 18 | 1.8 | 100 | 100 | – | – | – | –
